Laboratory results published in publication PMC12198407, “Preclinical and first-in-human of purinostat mesylate, a novel selective HDAC I/IIb inhibitor, in relapsed/refractory multiple myeloma and lymphoma” (Signal Transduction and Targeted Therapy, 2025).
Where “and” joins values, the source holds several entries; their conditions need not be identical. Equal values may be shown once. Read-outs that look alike come from different tables or passages of the source.

Tests used:
[1] = system: RPMI-8226R; experiment: Cell viability CCK8; format: cell-based; settings: Homo sapiens, 72 h, no unit in table, read-out: Antiproliferative activity IC50
Protocol: (§1) PM, panobinostat, Pom and DXM were dissolved in DMSO and stored at -20°C freezer. Cells were seeded at a density of 1.0-3.0 × 10^4 cells/well/100 μL in 96-well plates. After overnight incubation, cells were treated with the drug-containing culture medium for 24, 48, or 72 hours, and cell viability was measured using CCK8 (Oriscience, Chengdu, China) at the indicated time points with Biotek Cytation 3 at a wavelength of 450 nm. The IC50 values were calculated using GraphPad Prism 9.4.1, and Calcusyn 2.0 software was employed to calculate the CI values.

[2] = system: Raji; experiment: Cell viability CCK8; format: cell-based; settings: Homo sapiens, 72 h, no unit in table, read-out: Antiproliferative activity IC50
Protocol: as §1

[3] = system: Daudi; experiment: Cell viability CCK8; format: cell-based; settings: Homo sapiens, 72 h, no unit in table, read-out: Antiproliferative activity IC50
Protocol: as §1

[4] = system: ARD; experiment: Cell viability CCK8; format: cell-based; settings: Homo sapiens, 72 h, no unit in table, read-out: Antiproliferative activity IC50
Protocol: as §1

[5] = system: SUDHL-4; experiment: Cell viability CCK8; format: cell-based; settings: Homo sapiens, SU-DHL-4; SUDHL-4, 72 h; no unit in table; read-out: Antiproliferative activity IC50
Protocol: as §1

[6] = system: RPMI-8226; experiment: Cell viability CCK8; format: cell-based; settings: Homo sapiens; RPMI-8226, 72 h; no unit in table; read-out: Antiproliferative activity IC50
Protocol: as §1

[7] = system: OPM2; experiment: Cell viability CCK8; format: cell-based; settings: Homo sapiens, OPM-2; OPM2, 72 h; no unit in table; read-out: Antiproliferative activity IC50
Protocol: as §1

[8] = system: RL; experiment: Cell viability CCK8; format: cell-based; settings: Homo sapiens, 72 h, no unit in table, read-out: Antiproliferative activity IC50
Protocol: as §1

[9] = system: TMD-8; experiment: Cell viability CCK8; format: cell-based; settings: Homo sapiens, TMD8; TMD-8, 72 h; no unit in table; read-out: Antiproliferative activity IC50
Protocol: as §1

[10] = system: AMO1; experiment: Cell viability CCK8; format: cell-based; settings: Homo sapiens; AMO1, 72 h; no unit in table; read-out: Antiproliferative activity IC50
Protocol: as §1

[11] = system: Karpas299; experiment: Cell viability CCK8; format: cell-based; settings: Homo sapiens, KARPAS-299; Karpas299, 72 h; no unit in table; read-out: Antiproliferative activity IC50
Protocol: as §1

[12] = system: MM1R; experiment: Cell viability CCK8; format: cell-based; settings: Homo sapiens, MM.1R, 72 h, no unit in table, read-out: Antiproliferative activity IC50
Protocol: as §1

[13] = system: Ramos; experiment: Cell viability CCK8; format: cell-based; settings: Homo sapiens, 72 h, no unit in table, read-out: Antiproliferative activity IC50
Protocol: as §1

[14] = system: KMS-11; experiment: Cell viability CCK8; format: cell-based; settings: Homo sapiens; KMS-11, 72 h; no unit in table; read-out: Antiproliferative activity IC50
Protocol: as §1

[15] = system: MM1S; experiment: Cell viability CCK8; format: cell-based; settings: Homo sapiens, MM1.S, 72 h, no unit in table (b9: nM), read-out: Antiproliferative activity IC50
Protocol: as §1

[16] = system: NKYS; experiment: Cell viability CCK8; format: cell-based; settings: Homo sapiens, 72 h, no unit in table, read-out: Antiproliferative activity IC50
Protocol: as §1

[17] = in vivo
From the text: According to the "Guidelines for the Clinical Trial of Antineoplastic Drugs," for cytotoxic agents, the maximum recommended starting dose (MRSD) can be determined as one-tenth of the maximum tolerated dose (MTD) in rodent studies or one-sixth of the MTD in non-rodent species, expressed in mg/m². For some non-cytotoxic antineoplastic agents, due to their relatively lower toxicity, the starting dose for single administration in Phase I clinical trials can be calculated using one-fifth of the No Observed Adverse Effect Level (NOAEL) from non-rodent studies, or higher.
The Pharmacological Active Dose (PAD) based on mice is used to predict the minimum dose that may produce the expected pharmacological effect in humans.

[18] = system: HUVEC; experiment: Proliferation, MTT or Alamar Blue; format: cell-based; settings: Homo sapiens, read-out: IC50, normal HUVEC cells
[19] = system: CYP3A4; experiment: CYP induction, cryopreserved human liver cells; format: in vitro ADME; settings: 0.0500, 0.500, 5.00 µM; three donors
[20] = Pharmacokinetics in plasma and tumor, HCT116 tumor-bearing mice; format: in vivo, nude mice
Protocol: The mean residence time (MRT) was 0.51 ± 0.06 hours in plasma and 39.48 ± 4.74 hours in tumor.

[21] = Pharmacokinetics, intravenous; format: in vivo, Beagle dogs; settings: both sexes, Beagle, dog, plasma; for Vd: read-out: Vdss; for clearance: read-out: plasma clearance (CL)
Protocol: The elimination half-lives (T1/2) were 4.49 ± 0.669, 7.05 ± 3.07, and 8.47 ± 1.26 hours, respectively. The area under the plasma concentration-time curve from time zero to the last quantifiable time point (AUC0-last) was 75.1 ± 18.3, 238 ± 63.1, and 713 ± 122 h•ng/mL, respectively.

[22] = biological target: HDAC11 (Homo sapiens, UniProt Q96DB2); experiment: HDAC enzyme activity in vitro; format: biochemical
[23] = biological target: HDAC6 (Homo sapiens, UniProt Q9UBN7); experiment: HDAC enzyme activity in vitro; format: biochemical
[24] = Safety pharmacology, ECG and blood pressure; format: in vivo, Beagle dogs; settings: 3.6 mg/kg i.v.
Protocol: In the 1.2 and 3.6 mg/kg groups, transient increases in heart rate were observed, and in the 3.6 mg/kg group, a transient and reversible prolongation of QT interval (9.6%) was also noted. Additionally, there were no significant effects observed on other qualitative and quantitative ECG parameters or blood pressure in the dogs. […] In the 90 mg/kg group, reduced locomotor activity and decreased standing frequency were also observed, but these effects returned to baseline after 24 hours. No significant effects were noted on other neurological behaviors in rats, and no impacts on the respiratory system were observed.

[25] = system: solid tumor cells; experiment: Proliferation, MTT or Alamar Blue; format: cell-based; settings: Homo sapiens

Sequence of HDAC11 (Q96DB2 whole entry): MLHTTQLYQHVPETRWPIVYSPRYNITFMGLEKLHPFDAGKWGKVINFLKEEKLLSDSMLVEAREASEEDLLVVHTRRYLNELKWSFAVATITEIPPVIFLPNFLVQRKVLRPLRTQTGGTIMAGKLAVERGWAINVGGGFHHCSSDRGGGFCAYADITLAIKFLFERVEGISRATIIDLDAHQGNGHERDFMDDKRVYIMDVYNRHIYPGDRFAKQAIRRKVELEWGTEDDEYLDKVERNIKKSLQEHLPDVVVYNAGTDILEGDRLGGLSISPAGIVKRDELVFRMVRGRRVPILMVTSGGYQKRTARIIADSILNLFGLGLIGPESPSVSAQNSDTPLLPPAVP
Sequence of HDAC6 (Q9UBN7 whole entry): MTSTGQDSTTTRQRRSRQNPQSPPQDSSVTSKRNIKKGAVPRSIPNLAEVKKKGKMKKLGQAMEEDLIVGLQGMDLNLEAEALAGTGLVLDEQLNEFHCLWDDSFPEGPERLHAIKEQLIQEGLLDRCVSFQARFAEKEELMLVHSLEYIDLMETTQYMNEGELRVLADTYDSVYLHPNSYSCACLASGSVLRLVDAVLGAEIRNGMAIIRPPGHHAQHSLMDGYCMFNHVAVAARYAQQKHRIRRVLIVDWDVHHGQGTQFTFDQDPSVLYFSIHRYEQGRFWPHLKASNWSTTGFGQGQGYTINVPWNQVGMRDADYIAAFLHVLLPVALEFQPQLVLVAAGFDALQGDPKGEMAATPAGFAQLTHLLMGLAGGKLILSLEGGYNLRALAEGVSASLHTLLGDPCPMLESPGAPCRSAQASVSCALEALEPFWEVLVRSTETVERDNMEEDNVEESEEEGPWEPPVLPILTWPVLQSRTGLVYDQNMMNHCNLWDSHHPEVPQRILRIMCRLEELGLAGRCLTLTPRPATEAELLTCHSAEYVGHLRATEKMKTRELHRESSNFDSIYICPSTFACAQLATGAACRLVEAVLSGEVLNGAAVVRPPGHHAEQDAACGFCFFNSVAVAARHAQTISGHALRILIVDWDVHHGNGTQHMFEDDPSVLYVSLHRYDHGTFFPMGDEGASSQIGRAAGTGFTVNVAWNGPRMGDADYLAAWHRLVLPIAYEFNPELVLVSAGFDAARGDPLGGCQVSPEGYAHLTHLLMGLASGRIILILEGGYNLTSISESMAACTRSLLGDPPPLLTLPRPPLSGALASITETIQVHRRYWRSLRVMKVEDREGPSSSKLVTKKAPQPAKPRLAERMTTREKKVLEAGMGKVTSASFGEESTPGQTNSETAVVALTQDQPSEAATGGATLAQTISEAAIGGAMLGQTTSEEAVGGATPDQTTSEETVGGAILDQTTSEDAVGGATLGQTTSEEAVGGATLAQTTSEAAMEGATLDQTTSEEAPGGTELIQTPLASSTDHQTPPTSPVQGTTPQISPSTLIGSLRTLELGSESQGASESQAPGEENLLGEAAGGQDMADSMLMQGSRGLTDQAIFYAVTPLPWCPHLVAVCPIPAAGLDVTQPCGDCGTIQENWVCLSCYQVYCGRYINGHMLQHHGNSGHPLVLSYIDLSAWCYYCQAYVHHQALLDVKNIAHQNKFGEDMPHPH

CN(Cc1nc2c(N3CCOCC3)nc(-c3ccc(N)cc3)nc2n1C)c1ncc(C(=O)NO)cn1.CS(=O)(=O)O [PM, 2-(((2-(4-Aminophenyl)-9-methyl-6-(4-morpholinyl)-9H-purine-8-yl)methyl)methylamino)-N-hydroxy-5-pyrimidine-carboxamide Mesylate]
IC50 [1]: 2.02 ± 0.3 nM | IC50 [2]: 1.96 ± 0.18 nM | IC50 [3]: 0.73 ± 0.51 nM | IC50 [4]: 0.42 ± 0.04 nM | IC50 [5]: 0.73 ± 0.05 nM | IC50 [6]: 2.42 ± 0.4 nM | IC50 [7]: 1.78 ± 0.13 nM | IC50 [8]: 1.27 ± 0.14 nM | IC50 [9]: 0.99 ± 0.14 nM | IC50 [10]: 1.78 ± 0.14 nM | IC50 [11]: 1.16 ± 0.14 nM | IC50 [12]: 0.33 ± 0.01 nM | IC50 [13]: 1.24 ± 0.47 nM | IC50 [14]: 1.99 ± 0.21 nM | IC50 [15]: 0.47 ± 0.02 nM | IC50 [16]: 0.77 ± 0.07 nM | NOAEL ([17]; beagle, dog): < 0.3 mg/kg | NOAEL ([17]; rat): < 3 mg/kg | IC50 [18]: 68.9 nM | induction of CYP3A4 [19]: did not act as an inducer | tumor AUC(0-96h) ([20]; multiple i.v. 10 mg/kg): 9068 ± 213 µg·h/L | Cmax ([20]; nude, mouse, plasma, iv, 10 mg/kg, single i.v. 10 mg/kg, read-out: Cmax in plasma): 442 ± 67.2 ng/mL | MRT ([20]; nude, mouse, plasma, iv, 10 mg/kg, single i.v. 10 mg/kg, read-out: MRT in plasma): 0.51 ± 0.06 h | half-life ([20]; nude, mouse, plasma, iv, 10 mg/kg, single i.v. 10 mg/kg, read-out: elimination half-life (T1/2) in plasma (converted)): 1.21 h | AUC(0-t) ([20]; nude, mouse, plasma, iv, single i.v. 10 mg/kg, read-out: plasma AUC(0-8h)): 174 ± 25.2 ng·h/mL | Kp ([20]; nude, mouse, tumor and plasma, intravenous, 10 mg/kg, single dose, read-out: tumor AUC0-t / plasma AUC0-t ratio): 74.4 | concentration at 96 h ([20]; nude, mouse, tumor, intravenous, 10 mg/kg, single dose, read-out: drug concentration in tumor tissue after 96 hours): 69 ng/mL and ~140 nM | Cmax ([20]; nude, mouse, tumor, iv, 10 mg/kg, multiple i.v. 10 mg/kg, read-out: Cmax in tumor): 283 ± 64.8 ng/mL | MRT ([20]; nude, mouse, tumor, iv, 10 mg/kg, multiple i.v. 10 mg/kg, read-out: MRT in tumor): 34.7 ± 1.86 h | half-life ([20]; nude, mouse, tumor, iv, 10 mg/kg, multiple i.v. 10 mg/kg, read-out: elimination half-life (T1/2) in tumor (converted)): 68.7 ± 54.5 h | Cmax ([20]; nude, mouse, tumor, iv, 10 mg/kg, single i.v. 10 mg/kg, read-out: Cmax in tumor): 1040 ± 167 ng/mL | MRT ([20]; nude, mouse, tumor, iv, 10 mg/kg, single i.v. 10 mg/kg, read-out: MRT in tumor): 39.5 ± 4.74 h | half-life ([20]; nude, mouse, tumor, iv, 10 mg/kg, single i.v. 10 mg/kg, read-out: elimination half-life (T1/2) in tumor (converted)): 45.3 h | tumor AUC(0-96h) ([20]; single i.v. 10 mg/kg): 12922 ± 498 µg/Lh | AUC(0-t) ([21]; 0.3 mg/kg): 75.1 ± 18.3 ng·h/mL | Cmax ([21]; 0.3 mg/kg single i.v.): 130 ± 35.5 ng/mL | half-life ([21]; 0.3 mg/kg, read-out: T1/2 (converted)): 4.49 ± 0.669 h | Vd ([21]; 0.3 mg/kg): 3.69 ± 0.957 L/kg | clearance ([21]; 0.3 mg/kg): 68.4 ± 13.2 mL/min/kg | AUC(0-t) ([21]; 1 mg/kg): 238 ± 63.1 ng·h/mL | Cmax ([21]; 1 mg/kg single i.v.): 411 ± 162 ng/mL | half-life ([21]; 1 mg/kg, read-out: T1/2 (converted)): 7.05 ± 3.07 h | Vd ([21]; 1 mg/kg): 3.85 ± 1.8 L/kg | clearance ([21]; 1 mg/kg): 73.4 ± 17.9 mL/min/kg | AUC(0-t) ([21]; 3 mg/kg): 713 ± 122 ng·h/mL | Cmax ([21]; 3 mg/kg single i.v.): 1230 ± 166 ng/mL | half-life ([21]; 3 mg/kg, read-out: T1/2 (converted)): 8.47 ± 1.26 h | Vd ([21]; 3 mg/kg): 2.89 ± 0.605 L/kg | clearance ([21]; 3 mg/kg): 71.5 ± 11.6 mL/min/kg | half-life ([21]; single i.v., range over doses, read-out: half-life): 4.49 to 8.47 h | IC50 [22]: 3350 nM | IC50 [23]: 11.5 nM | PAD (Mouse): 2.5 mg/kg | MRSD from MTD, most sensitive species (beagle, dog): 3.33 mg/m² | equivalent human dose of exposure at dog HNSTD (beagle, dog): 36.88 mg/m² | prolongation of QT interval, transient and reversible [24]: 9.6% | IC50 ([25]; all lines): < 100 nM | IC50 ([25]; most tumor cell lines): < 50 nM
